# Assay results published in patent publication US7423181B2, “Aminoalkoxy-functional chalcones” (Lica Pharmaceuticals A/S, priority 2002, dated 2008).
# pIC50: −log10 of the molar value. Like-named read-outs stand apart in the source and are kept apart here.
# Experiments:
# [1] = system: Plasmodium falciparum 3D7; assay: Plasmodium falciparum assay; format: cell-based; conditions: Plasmodium falciparum 3D7 (Table 2); read-out: IC50
# [2] = system: Staphylococcus aureus ATCC29213; assay: MIC determination in broth microdilution assay
# [3] = system: Staphylococcus aureus ATCC33591(resistant to methicillin); assay: MIC determination in broth microdilution assay
# [4] = system: Streptococcus pneumoniae #998 (clinical isolate); assay: MIC determination in broth microdilution assay
# [5] = system: Enterococcus faecium #17501 (vancomycin-resistant clinical isolate); assay: MIC determination in broth microdilution assay
# Eschericia coli ESS = assay: MIC determination in broth microdilution assay
# [6] = system: Enterococcus faecalis ATCC29212; assay: MIC determination in broth microdilution assay
# [7] = system: Eschericia coli ATCC25922; assay: MIC determination in broth microdilution assay; conditions: for MIC: G: Eschericia coli ATCC25922
# [8] = Determination of metabolic stability (liver microsomes); format: in vitro ADME; conditions: rat liver microsomes, 20 μM, 15 min
# Method: Determination of Metabolic Stability
# Incubations were performed with Wistar rat liver microsomes (0.25 mg/ml) in 2% sodium bicarbonate solution. NADP (0.13 mg/ml), glucose-6-phosphate (0.63 mg/ml) and glucose-6-phosphate dehydrogenase (0.38 units/ml) were used as NADPH generation system and UDPGA (0.48 mg/ml) was added to include the phase II reaction, glucuronic acid conjugation, in the assay. After 5 minutes of pre-incubation the reaction was started by addition of the test article to give a final concentration of 20 μM. Samples were incubated for 15 min at 37° C. and the reactions were terminated by addition of equal volumes of acetonitrile. Blank incubations were performed at the same concentration but without addition of microsomes. Both blank and microsome-containing samples were made in replicats of three. Prior to analysis samples were centrifuged for 10 min. at 3500 rpm,HPLC system:
# Initial conditions were 40% mobile phase A (acetonitrile) and 60% mobile phase B (10 mM ammonium acetate pH 9.5). During the first 20 minutes, the mobile phase was changed via a linear gradient to 90% A and 10% B. This was followed by a 5 minutes linear gradient to initial conditions, which were maintained for 5 min. The flow rate was 0.20 m)/min and injection volume 10 μl.
# L. major promastigotes = assay: Leishmania promastigote assay; conditions: L. major
# [9] = system: panel of 10 different non-fastidious bacteria; assay: Screening against panel of non-fastidious bacteria; conditions: Gram-positive pathogens
# [10] = A: Staphylococcus aureus ATCC29213
# [11] = B: Staphylococcus aureus ATCC33591(resistant to methicillin)
# [12] = F: Streptococcus pneumoniae #998
# [13] = E: Enterococcus faecium #17501 (vancomycin-resistant)
# [14] = D: Enterococcus faecalis ATCC29212
SMILES,"MIC [2, 10]","MIC [3, 11]","MIC [4, 12]","MIC [5, 13]",MIC (Eschericia coli ESS; H: Eschericia coli ESS),"MIC [6, 14]",MIC [7],also measured
"COc1ccc(C(=O)/C=C/c2cc(-c3cc(C)cc(C)c3)ccc2OCCN(C)C)cc1CN(C)C [Compound C090, (E)-3-[4-(2-Dimethylamino-ethoxy)-3′,5′-dimethyl-biphenyl-3-yl]-1-(3-dimethylaminomethyl-4-methoxy-phenyl)-propenone]",,,,,,,,pIC50 [1]: 6.30
"Cc1cc(C)cc(-c2ccc(OCCN(C)C)c(/C=C/C(=O)c3ccccc3N)c2)c1 [Compound C093, (E)-1-(2-Amino-phenyl)-3-[4-(2-dimethylamino-ethoxy)-3′,5′-dimethyl-biphenyl-3-yl]-propenone]",4.7 µM,4.7 µM,18.8 µM,4.7 µM,4.7 µM,9.4 µM,,
"Cc1cc(C)cc(-c2ccc(OCCN(C)C)c(/C=C/C(=O)c3cccc(CN(C)C)c3)c2)c1 [Compound C089, (E)-3-[4-(2-Dimethylamino-ethoxy)-3′,5′-dimethyl-biphenyl-3-yl]-1-(3-dimethylaminomethyl-phenyl)-propenone]",9.4 µM,9.4 µM,9.7 µM,9.4 µM,4.7 µM,9.4 µM,37.5 µM,Metabolic turn-over in vitro [8]: 9%
"COc1ccc(C(=O)/C=C/c2cc(-c3cc(C)cc(C)c3)ccc2OCCN(C)C)c(CN(C)C)c1 [Compound C092, (E)-3-[4-(2-Dimethylamino-ethoxy)-3′,5′-dimethyl-biphenyl-3-yl]-1-(2-dimethylaminomethyl-4-methoxy-phenyl)-propenone]",4.7 µM,9.4 µM,4.7 µM,4.7 µM,4.7 µM,4.7 µM,75 µM,Metabolic turn-over in vitro [8]: 4%
"CN(C)CCCOc1cccc(/C=C/C(=O)c2ccccc2CN(C)C)c1 [Compound C071, (E)-1-(2-Dimethylaminomethyl-phenyl)-3-[3-(3-dimethylamino-propoxy)-phenyl]-propenone]",,,,,,,,Metabolic turn-over in vitro [8]: 3%
"Cc1ccccc1-c1ccc(OCCN(C)C)c(/C=C/C(=O)c2ccccc2CN2CCN(C)CC2)c1 [Compound C032, (E)-3-[4-(2-Dimethylamino-ethoxy)-2′-methyl-biphenyl-3-yl]-1-[2-(4-methyl-piperazin-1-ylmethyl)-phenyl]-propenone]",,,,,,,,pIC50 (L. major promastigotes): 6.15; pIC50 [1]: 6.30
"Cc1cc(C)cc(-c2ccc(OCCN(C)C)c(/C=C/C(=O)c3ccccc3OC(C)C)c2)c1 [Compound C067, (E)-3-[4-(2-Dimethylamino-ethoxy)-3′,5′-dimethyl-biphenyl-3-yl]-1(2-isopropoxy-phenyl)-propenone]",4.7 µM,4.7 µM,18.8 µM,4.7 µM,18.8 µM,4.7 µM,,
"Cc1cc(C)cc(-c2ccc(OCCN(C)C)c(/C=C/C(=O)c3ccc(O)cc3F)c2)c1 [Compound C156, (E)-3-[4-(2-Dimethylamino-ethoxy)-3′,5′-dimethyl-biphenyl-3-yl]-1-(2-fluoro-4-hydroxy-phenyl)-propenone]",,,,,,,,pIC50 [1]: 7.00
"CCCc1cc(/C=C/C(=O)c2ccc(OC)cc2F)c(OCCN(C)C)cc1O [Compound C039, (E)-3-[2-(2-Dimethylamino-ethoxy)-4-hydroxy-5-propyl-phenyl]-1-(2-fluoro-4-methoxy-phenyl)-propenone]",9.4 µM,18.8 µM,18.8 µM,18.8 µM,9.4 µM,18.8 µM,75.0 µM,
"COc1ccc(C(=O)/C=C/c2cc(-c3cc(C)cc(C)c3)ccc2OCCN(C)C)c(F)c1 [Compound C024, (E)-3-[4-(2-Dimethylamino-ethoxy)-3′,5′-dimethyl-biphenyl-3-yl]-1-(2-fluoro-4-methoxy-phenyl)-propenone]",,,,,,,,Metabolic turn-over in vitro [8]: 3%; pIC50 (L. major promastigotes): 7.40
"Cc1cc(C)cc(-c2ccc(OCCN(C)C)c(/C=C/C(=O)c3ccccc3OCCCN(C)C)c2)c1 [Compound C104, (E)-3-[4-(2-Dimethylamino-ethoxy)-3′,5′-dimethyl-biphenyl-3-yl]-1-[2-(3-dimethylamino-propoxy)-phenyl]-propenone]",9.4 µM,18.8 µM,9.4 µM,9.4 µM,9.4 µM,9.4 µM,18.8 µM,
"Cc1cc(C)cc(-c2ccc(OCCN(C)C)c(/C=C/C(=O)c3cccc(N4CCN(C)CC4)c3)c2)c1 [Compound C103, (E)-3-[4-(2-Dimethylamino-ethoxy)-3′,5′-dimethyl-biphenyl-3-yl]-1-[3-(4-methyl-piperazin-1-yl)-phenyl]-propenone]",4.7 µM,4.7 µM,,9.4 µM,4.7 µM,9.4 µM,18.8 µM,activity against E coli ATCC25922 [7]: high activity; activity against ESS strain of E.coli (Eschericia coli ESS): high activity
"CN(C)CCOc1ccc(-c2ccccc2O)cc1/C=C/C(=O)c1ccccc1CN(C)C [Compound C131, (E)-3-[4-(2-Dimethylamino-ethoxy)-2′-hydroxy-biphenyl-3-yl]-1-(2-dimethylaminomethyl-phenyl)-propenone]",,,,,,,,pIC50 [1]: 6.52
"COc1ccc(C(=O)/C=C/c2cc(C(C)(C)C)ccc2OCCN(C)C)c(F)c1 [Compound C004, (E)-3-[5-tert-Butyl-2-(2-dimethylamino-ethoxy)-phenyl]-1-(2-fluoro-4-methoxy-phenyl)-propenone]",9.4 µM,9.4 µM,18.8 µM,18.8 µM,9.4 µM,18.8 µM,75.0 µM,potency against Gram-positive pathogens in comparison with Licochalcone A [9]: increased potency
"Cc1cc(C)cc(-c2ccc(OCCN(C)C)c(/C=C/C(=O)c3cccc(O)c3)c2)c1 [Compound C085, (E)-3-[4-(2-Dimethylamino-ethoxy)-3′,5′-dimethyl-biphenyl-3-yl]-1-(3-hydroxy-phenyl)-propenone]",4.7 µM,4.7 µM,75 µM,4.7 µM,4.7 µM,4.7 µM,,
"Cc1cc(C)cc(-c2ccc(OCCN(C)C)c(CCC(=O)c3ccc(F)cc3)c2)c1 [Compound C072, 3-[4-(2-Dimethylamino-ethoxy)-3′,5′-dimethyl-biphenyl-3-yl]-1-(4-fluoro-phenyl)-propan-1-one]",,,,,,,,"MIC ([2]; Staphylococcus aureus, ATCC29213): 9.4 µM; MIC ([3]; Staphylococcus aureus, ATCC33591): 18.8 µM; MIC ([4]; Streptococcus pneumoniae): 37.5 µM; MIC ([5]; Enterococcus faecium): 18.8 µM; MIC (Eschericia coli ESS): 9.4 µM; MIC ([6]; Enterococcus faecalis, ATCC29212): 18.8 µM"
"COc1ccc(C(=O)/C=C/c2cc(-c3ccccc3)ccc2OCCN(C)C)c(F)c1 [Compound C011, (E)-3-[4-(2-Dimethylamino-ethoxy)-biphenyl-3-yl]-1-(2-fluoro-4-methoxy-phenyl)-propenone]",,,,,,,,pIC50 (L. major promastigotes): 7.00
"Cc1cc(C)cc(-c2ccc(OCCN(C)C)c(/C=C/C(=O)c3ccc(OCCN(C)C)cc3F)c2)c1 [Compound C157, (E)-3-[4-(2-Dimethylamino-ethoxy)-3′,5′-dimethyl-biphenyl-3-yl]-1-[4-(2-dimethylamino-ethoxy)-2-fluoro-phenyl]-propenone]",4.7 µM,9.4 µM,9.4 µM,9.4 µM,4.7 µM,9.4 µM,18.8 µM,
"Cc1cc(C)cc(-c2ccc(OCCN(C)C)c(/C=C/C(=O)c3ccc(O)c(F)c3)c2)c1 [Compound C140, (E)-3-[4-(2-Dimethylamino-ethoxy)-3′,5′-dimethyl-biphenyl-3-yl]-1-(3-fluoro-4-hydroxy-phenyl)-propenone]",,,,,,,,pIC50 (L. major promastigotes): 6.70
